{"source": "patent US11116767B2", "about": "“3,5-disubstituted pyrazoles useful as checkpoint kinase 1 (Chk1) inhibitors, and their preparations and applications” (PHARMAENGINE, INC., priority 2016, dated 2021)", "key": {"Chk2": {"target": "T1, Chk2 (Homo sapiens, UniProt O96017)", "T1 construct": "purchased Carna 02-162", "T1 sequence (O96017 whole entry)": "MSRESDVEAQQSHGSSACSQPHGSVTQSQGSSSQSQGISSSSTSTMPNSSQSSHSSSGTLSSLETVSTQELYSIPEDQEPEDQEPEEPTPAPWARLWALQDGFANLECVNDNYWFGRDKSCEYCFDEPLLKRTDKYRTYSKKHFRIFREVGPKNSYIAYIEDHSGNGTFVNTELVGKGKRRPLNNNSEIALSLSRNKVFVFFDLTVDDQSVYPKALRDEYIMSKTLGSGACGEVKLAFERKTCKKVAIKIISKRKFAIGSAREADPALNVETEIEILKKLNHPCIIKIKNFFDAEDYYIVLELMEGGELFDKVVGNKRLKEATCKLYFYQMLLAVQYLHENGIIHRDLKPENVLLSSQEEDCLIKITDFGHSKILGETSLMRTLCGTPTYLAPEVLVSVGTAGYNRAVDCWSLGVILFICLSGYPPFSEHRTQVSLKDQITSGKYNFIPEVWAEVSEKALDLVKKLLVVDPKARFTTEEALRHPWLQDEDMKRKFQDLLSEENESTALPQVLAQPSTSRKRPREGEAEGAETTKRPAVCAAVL", "assay": "biochemical", "conditions": "ADP-Glo; read-out: Chk2 in vitro enzyme activity (grade)"}, "[1]": {"test_system": "LoVo colon cancer xenograft", "assay": "LoVo colon xenograft model", "type": "in vivo, Balb/c nude mice", "procedure": "(§1) Female Balb/c nude mice at 7-8 weeks of age (Body weights between 17-18g) were purchased from Hunan SJA Laboratory Animal Co., Ltd. HT-29 cells were cultured in DMEM culture medium containing 10% fetal bovine serum and LoVo cells were cultured in RPMI 1640 culture medium containing 10% fetal bovine serum. The cells were harvested and washed with serum free culture medium. Finally, the cells were suspended at a cell density of […] in serum free culture medium for implantation. 5 million cells per animal suspended in 0.1 ml serum free culture medium and 1.1 matrigel were injected into the right flank of the animals after a one, week acclimation period. When average tumor volume reached acceptable tumor size (100-200 mm^3) and shape, the animals were randomly assigned into treatment groups.\nLovo colon cancer cells were implanted to establish the xenograft model in Balb/c nude mice. Compound 3 and LY2606368 were dissolved in 30% SEB-β-CD (Zhiyuan Bio-technology) with 1 molar equivalents of HCl. […]"}, "[2]": {"test_system": "ChK1 phosphorylation (pChK1 S296) in HT-29 colon cancer cells", "assay": "Western blot analysis of ChK1 phosphorylation in HT-29 cells with SN-38", "type": "cell-based, Human", "conditions": "HT-29 cells pre-incubated with SN-38 (50 nM) 24 hours, then ChK1 inhibitor 3 hours"}, "[3]": {"assay": "Pharmacokinetics study in rats, intravenous", "type": "in vivo, SD rats", "conditions": "rat, in vivo, iv", "procedure": "Compounds were formulated in 30% SEB-β-CD (Zhiyuan Bio-technology) with 1 molar equivalents of HCl (pH adjusted to 3-5). Male SD rats (280-350 g) were purchased from Medical Laboratory Animal Center of Guangdong. Three rats were used for each PK study. […] At various time points after compound administration, approximately 0.2˜0.3 mL of blood was collected by cutting the end of tail into tubes containing K2-EDTA. The plasma was separated via centrifugation and stored at −80° C. A PE Sciex API-3000 LC-MS/MS system (Applied Biosystems, Inc.) was used to analyze compound concentrations in plasma.\nPK studies of ChK1 inhibitors were conducted in rats after intravenous administration at 10 mg/kg. […]. […]"}, "[4]": {"test_system": "HT-29 colon cancer xenograft", "type": "in vivo", "procedure": "as §1\nHT-29 colon cancer cells were implanted to establish the xenograft model in Balb/c nude mice. Compound 3 and LY2606368 were dissolved in 30% SEB-β-CD (Zhiyuan Bio-technology) with 1 molar equivalents of HCl. GDC-575 was suspended in 0.5% methyl cellulose/0.1% Tween 80 in water. […]. The animals well tolerated each treatment in the HT-29 colon cancer in nude mice model."}, "MDA-MB-231": {"test_system": "MDA-MB-231", "assay": "Cancer cell growth inhibition assay (CellTiter-Glo), MDA-MB-231", "type": "cell-based, Human", "conditions": "Homo sapiens, MDA-MB-231; 72 hours, cellular ATP content; read-out: MDA-MB-231 anti cell proliferation activity (grade)"}, "[5]": {"assay": "Human liver S9 metabolic stability", "type": "in vitro ADME", "conditions": "for Percentage Remaining %: 1 μM, 37° C.", "procedure": "Compounds (1 μM) were incubated with human liver S9 (from BD Gentest) at final liver microsomal protein concentration of 0.5 mg/mL for 0, 5, 15, 30, 45 min at 37° C. The remaining compounds in the reaction were measured by LC-MS/MS. The half-life (T½) 0.693/K (K is the rate constant from a plot of ln [concentration] vs. incubation time)."}, "in vivo": {"assay": "in vivo", "parameters": "species or system Balb/c nude mice", "conditions": "mouse, iv, 40 mg/kg", "procedure": "as §1\nCompound 3 was selected for further PK studies in tumor bearing mice. HT-29 colon cancer cells were implanted to establish the xenograft model in Balb/c nude mice. Twenty-four mice were divided into 8 time groups with n=3/group. Compound 3 was dissolved in 30% SEB-β-CD (Zhiyuan Bio-technology) with 1 molar equivalents of HCl. Each animal was dosed via intravenous administration of Compound 3 at 40 mg/kg. Blood and tumors were collected at various time points after mice were euthanized with CO2. Blood samples were centrifuged at 4° C. immediately after collection. The supernatants were transferred to 1.5 mL of Eppendorf vials as soon as possible and stored at −80° C. in a freezer. Tumor samples were collected and placed in dry ice until transferred to a −80° C. freezer for bioanalysis."}}}
{"smiles": "COc1cc(F)cc(OCCCN)c1-c1cc(Nc2cnc(C#N)cn2)n[nH]1", "note": "[Compound 3, 5-(5-(2-(3-Aminopropoxy)-4-fluoro-6-methoxyphenyl)-1H-pyrazol-3-ylamino)pyrazine-2-carbonitrile]", "values": [{"measurement": "IC50", "setting": "Chk2", "value": "0.05 to 0.1", "unit": "µM"}, {"measurement": "T/C value", "setting": "[1]; 40 mg/kg, IV, twice a week", "value": "−77", "unit": "%"}, {"measurement": "tumor growth inhibition", "setting": "[1]; LY2606368 15 mg/kg, Compound 3 10, 20, 40 mg/kg, IV, twice a week", "value": "significant tumor growth inhibition in a dose-dependent manner"}, {"measurement": "efficacy compared with LY2606368 at MTD dose", "setting": "[1]; MTD dose", "value": "more efficacious than LY2606368"}, {"measurement": "inhibition of ChK1 phosphorylation (FIG. 2)", "setting": "[2]", "value": "potently inhibited ChK1 phosphorylation"}, {"measurement": "AUC(0-inf)", "setting": "[3]; male, SD, 10 mg/kg", "value": 4640, "unit": "ng·h/mL"}, {"measurement": "AUC(0-t)", "setting": "[3]; male, SD, 10 mg/kg", "value": 4530, "unit": "ng·h/mL"}, {"measurement": "MRT", "setting": "[3]; male, SD, 10 mg/kg", "value": 2.8, "unit": "h"}, {"measurement": "clearance", "setting": "[3]; male, SD, 10 mg/kg", "value": 38.3, "unit": "mL/min/kg"}, {"measurement": "half-life", "setting": "[3]; male, SD, 10 mg/kg", "value": 3.8, "unit": "h"}, {"measurement": "Vd", "setting": "[3]; male, SD, 10 mg/kg, Vd", "value": 12.3, "unit": "L/kg"}, {"measurement": "Vd", "setting": "[3]; male, SD, 10 mg/kg, Vss", "value": 6.4, "unit": "L/kg"}, {"measurement": "half-life and exposure compared with LY2606368", "setting": "[3]", "value": "longer half-life and higher exposure than LY2606368"}, {"measurement": "T/C value", "setting": "[4]; 40 mg/kg, iv, 2 times/week", "value": 31, "unit": "%"}, {"measurement": "Tumor volume (X ± SD)", "setting": "[4]; 40 mg/kg, iv, 2 times/week", "value": "407 ± 17", "unit": "mm^3"}, {"measurement": "Tumor weight (X ± SD)", "setting": "[4]; 40 mg/kg, iv, 2 times/week", "value": "272 ± 16", "unit": "mg"}, {"measurement": "efficacy compared with references at their MTD", "setting": "[4]; mouse, in vivo", "value": "more efficacious than the reference LY-2606368"}, {"measurement": "IC50", "setting": "MDA-MB-231", "value": "0.05 to 0.1", "unit": "µM"}, {"measurement": "Percentage Remaining %", "setting": "[5]; 0 min", "value": 100.00, "unit": "%"}, {"measurement": "Percentage Remaining %", "setting": "[5]; 5 min", "value": 96.98, "unit": "%"}, {"measurement": "Percentage Remaining %", "setting": "[5]; 15 min", "value": 94.32, "unit": "%"}, {"measurement": "Percentage Remaining %", "setting": "[5]; 30 min", "value": 65.38, "unit": "%"}, {"measurement": "Percentage Remaining %", "setting": "[5]; 45 min", "value": 77.05, "unit": "%"}, {"measurement": "metabolic stability compared with LY2606368", "setting": "[5]; human liver S9", "value": "more metabolic stable than LY2606368"}, {"measurement": "half-life at 1 μM", "setting": "[5]; human liver S9, 1 μM", "value": 2.76, "unit": "h"}, {"measurement": "Kp", "setting": "in vivo; female, Balb/c nude", "value": "~6"}, {"measurement": "half-life", "setting": "in vivo; female, Balb/c nude, half-life in blood", "value": 6.1, "unit": "h"}, {"measurement": "half-life", "setting": "in vivo; female, Balb/c nude, half-life in tumor tissues", "value": 14, "unit": "h"}, {"measurement": "distribution into tumor tissues", "setting": "in vivo", "value": "rapidly distributed into tumor tissues"}]}
